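In this assay, cells in 96-well plates receive the compound at five concentrations for 48 hours. Endpoints are linearly interpolated between the surrounding concentrations. Here, GI50 denotes the concentration required for 50% inhibition of growth. TGI denotes the concentration required for complete inhibition of growth.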
What was measured:
Assay in all cases: inhibition of tumour cell growth, NCI panel, 48 h
CAKI-1 renal = test system: CAKI-1 renal
TK-10 renal = test system: TK-10 renal
UACC-257 melanoma = test system: UACC-257 melanoma
SF-539 CNS = test system: SF-539 CNS
SK-MEL-5 melanoma = test system: SK-MEL-5 melanoma
COLO 205 colon = test system: COLO 205 colon
OVCAR-3 ovarian = test system: OVCAR-3 ovarian
KM12 colon = test system: KM12 colon
NCI/ADR-RES ovarian = test system: NCI/ADR-RES ovarian
LOX IMVI melanoma = test system: LOX IMVI melanoma

| SMILES | TGI (CAKI-1 renal) [µM] | TGI (TK-10 renal) [µM] | TGI (UACC-257 melanoma) [µM] | TGI (SF-539 CNS) [µM] | TGI (SK-MEL-5 melanoma) [µM] | TGI (COLO 205 colon) [µM] | TGI (OVCAR-3 ovarian) [µM] | TGI (KM12 colon) [µM] | TGI (NCI/ADR-RES ovarian) [µM] | TGI (LOX IMVI melanoma) [µM] | GI50 (CAKI-1 renal) [µM] | GI50 (TK-10 renal) [µM] | GI50 (UACC-257 melanoma) [µM] | GI50 (SF-539 CNS) [µM] | GI50 (LOX IMVI melanoma) [µM] | GI50 (SK-MEL-5 melanoma) [µM] | GI50 (OVCAR-3 ovarian) [µM] | GI50 (KM12 colon) [µM] |
| --- | --- | --- | --- | --- | --- | --- | --- | --- | --- | --- | --- | --- | --- | --- | --- | --- | --- | --- |
| CO/C(=N\N=C\c1ccc(Cl)cc1)c1ccncc1 | > 100 | > 100 | > 100 | > 100 | > 100 | > 100 | > 100 | > 100 | – | – | – | – | – | – | – | – | – | – |
| O=C(O)CC(NC(=O)Nc1ccc([N+](=O)[O-])cc1)C(=O)Nc1ccc([N+](=O)[O-])cc1 (stereo not given) | > 100 | > 100 | > 100 | > 100 | > 100 | > 100 | > 100 | > 100 | > 100 | > 100 | – | – | – | – | – | – | – | – |
| O=S(=O)(c1ccccc1)n1c(C(O)c2ccncc2)cc2ccccc21 (stereo not given) | > 100 | 79.7 | 38.9 | > 100 | 35.4 | > 100 | > 100 | > 100 | > 100 | > 100 | – | – | – | – | – | – | – | – |
| CC(C)OC(=O)c1ccc(NCC2=CC(=O)C=CC2=O)cc1Cl | 6.19 | 30 | 33.9 | 37.5 | > 57.6 | 21.3 | > 45.9 | 33.2 | > 100 | 35.6 | – | – | – | – | – | – | – | – |
| COc1ccc2oc(S(=O)(=O)N3CC(CCl)c4ccc([N+](=O)[O-])cc43)cc2c1 (stereo not given) | 0.239 | > 55.2 | > 32.1 | 0.308 | 5.45 | 0.322 | 0.457 | 0.418 | 4.03 | 1.38 | – | – | – | – | – | – | – | – |
| NNC(=O)CC(=O)Nc1ccc(Cl)cc1 | > 100 | > 100 | > 100 | > 100 | > 100 | > 100 | > 100 | > 100 | > 100 | > 100 | – | – | – | – | – | – | – | – |
| CN(C)N=Nc1ccc([N+](=O)[O-])cc1C(N)=O | > 100 | – | > 100 | > 100 | > 100 | > 100 | > 100 | > 100 | > 100 | > 100 | – | – | – | – | – | – | – | – |
| COc1ccc(-c2oc3ccc(C)cc3c(=O)c2O)cc1 | > 100 | > 100 | > 100 | > 100 | > 100 | > 100 | > 100 | > 100 | > 100 | > 100 | – | – | – | – | – | – | – | – |
| O=C(CCc1cccc(O)c1)NCCc1cccc(O)c1 | > 100 | > 100 | > 100 | > 100 | > 100 | > 100 | > 100 | > 100 | > 100 | > 100 | – | – | – | – | – | – | – | – |
| COc1cc2c(cc1OCCCC(=O)Nc1cc(C(=O)Nc3cc(C(=O)Nc4cc(C(=O)NCCCN(C)C)n(C)c4)n(C)c3)n(C)c1)N=C[C@@H]1CCCN1C2=O | 1.26 | 3.49 | 4.09 | 8.72 | 6.65 | 3.15 | 3.62 | > 52.2 | 6.21 | 2.26 | – | – | – | – | – | – | – | – |
| COc1ccc(/C=N\N2CC(=O)N3C4C=CC(CC4)N3C2=O)cc1 (stereo not given) | > 100 | > 100 | > 100 | > 100 | > 100 | > 100 | > 100 | > 100 | > 100 | > 100 | – | – | – | – | – | – | – | – |
| CCCSc1cc(Cl)c(C)cc1S(=O)(=O)n1ccnc1OCCCN(C)C | > 100 | > 100 | > 100 | > 100 | > 100 | > 100 | > 100 | > 100 | > 100 | > 100 | – | – | – | – | – | – | – | – |
| COc1ccc2c(c1)OCC1(O)Cc3ccccc3OC21 (stereo not given) | > 100 | > 100 | > 100 | > 100 | > 100 | > 100 | > 100 | > 100 | > 100 | > 100 | – | – | – | – | – | – | – | – |
| Cn1ccnc1CCc1ccc(F)cc1F | – | > 100 | – | > 100 | > 100 | > 100 | > 100 | > 100 | > 100 | > 100 | – | – | – | – | – | – | – | – |
| Cc1cn(C2CC(O)C(CO)C2C)c(=O)[nH]c1=O (stereo not given) | – | – | > 100 | > 100 | – | > 100 | > 100 | > 100 | – | > 100 | – | – | – | – | – | – | – | – |
| C(=N\Nc1ncc(-c2cc3cc4c(cc3o2)OCO4)s1)/c1c[nH]c2ccccc12 | 3.21 | 5.59 | 7.77 | 1.98 | 3.23 | – | 1.89 | 2.04 | – | 1.7 | 1.18 | 2.4 | 2.57 | 0.669 | 0.426 | 1.66 | 0.536 | 0.449 |
| CCCC1NC(C#N)(C#N)C(CCC)NC1(C#N)C#N (stereo not given) | > 50.4 | > 100 | > 100 | – | > 100 | 12.7 | 29.1 | > 65.9 | 15.2 | 31.4 | – | – | – | – | – | – | – | – |
| COc1cc2c(cc1OC)C1CN3C(=O)CCC3C(O)C1c1cc(OC)c(OC)cc1-2 (stereo not given) | > 100 | > 100 | > 100 | – | > 100 | > 100 | – | > 100 | > 100 | > 100 | – | – | – | – | – | – | – | – |
| O=C1C=Cc2c(Cl)sc(Cl)c21 | 4.57 | 4.39 | 4.78 | – | 8.09 | – | – | – | 5.32 | 1.89 | – | – | – | – | – | – | – | – |
| CCOC(=O)C(=[N+]=[N-])C(=O)C[N+]12CCN(CC1)CC2 | > 100 | > 100 | > 100 | – | > 100 | > 100 | > 100 | > 100 | > 100 | > 100 | – | – | – | – | – | – | – | – |
| CCNc1nc(N)c(C(=O)c2ccc(Cl)cc2)s1 | – | 54.4 | > 100 | > 100 | > 100 | 47 | 65.4 | > 100 | > 100 | > 100 | – | – | – | – | – | – | – | – |
| O=[N+]([O-])C(/C(Cl)=C(/Cl)N1CCOCC1)=C1\NCCO1 | > 100 | – | > 100 | > 100 | – | > 100 | > 100 | > 100 | > 100 | – | – | – | – | – | – | – | – | – |
